Experimental findings from patent publication US8846719B2, “Isoxazolo-pyridine derivatives” (Roche Palo Alto LLC, priority 2007, dated 2014) are described below.

Molecules are shown by their SMILES.

The target in the experiment is human GABA A receptor α5β3γ2 (Homo sapiens (Human), UniProt P18507+P31644). Put plainly: [3H]flumazenil competition binding assay, human GABA A α5β3γ2 receptors expressed in HEK293 cells. As to conditions: human receptor; displacement of [3H]flumazenil (0.5 nM); means of two determinations; read-out: hKi GABAAa5. An outline of the steps: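 Competition for [3H]flumazenil binding on membranes of HEK293 cells transiently transfected with human α5β3γ2 receptors, in Krebs-tris buffer pH 7.5.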
On the technique in general: Displacement assays read how much labelled ligand stays bound in the presence of the test substance.

Consider `COC(=O)c1ccc(NCc2c(-c3ccccc3)noc2C)nc1` [Example 161, 6-[(5-Methyl-3-phenyl-isoxazol-4-ylmethyl)-amino]-nicotinic acid methyl ester], for which the Ki was 27.4 nM.

Take `Cc1onc(-c2ccccc2)c1COc1ccc(C(=O)Nc2ccn(C)n2)cn1` [Example 244, 6-(5-Methyl-3-phenyl-isoxazol-4-ylmethoxy)-N-(1-methyl-1H-pyrazol-3-yl)-nicotinamide]: the Ki was 5.1 nM. Under `C[C@H](CO)NC(=O)c1ccc(OCc2conc2-c2ccc(Cl)cc2)nc1` [Example 354, 6-[3-(4-Chloro-phenyl)-isoxazol-4-ylmethoxy]-N—((R)-2-hydroxy-1-methyl-ethyl)-nicotinamide] stands 10.7 nM; under `Cc1onc(-c2ccccc2)c1COc1ccc(C(=O)N[C@H]2CCCC[C@@H]2O)cn1` [Example 198, N-((1S,2S)-2-Hydroxy-cyclohexyl)-6-(5-methyl-3-phenyl-isoxazol-4-ylmethoxy)-nicotinamide], 6.5 nM; under `COC(=O)c1ccc(OCc2c(-c3ccncn3)noc2C)nc1` [Example 312, 6-(5-Methyl-3-pyrimidin-4-yl-isoxazol-4-ylmethoxy)-nicotinic acid methyl ester], 11.3 nM. For `Cc1onc(-c2ccc(F)cc2F)c1COc1ccc(C(=O)NC2CCOCC2)cn1` [Example 264, 6-[3-(2,4-Difluoro-phenyl)-5-methyl-isoxazol-4-ylmethoxy]-N-(tetrahydro-pyran-4-yl)-nicotinamide], the Ki was 2.3 nM. Take `O=C(NC1CC1)c1ccc(OCc2c(-c3ccccc3)noc2C(F)(F)F)nc1` [Example 134, N-Cyclopropyl-6-(3-phenyl-5-trifluoromethyl-isoxazol-4-ylmethoxy)-nicotinamide]: the Ki is 23.8 nM. As for `CCNC(=O)c1ccc(OCc2c(-c3ccccc3)noc2C(F)(F)F)nc1` [Example 130, N-Ethyl-6-(3-phenyl-5-trifluoromethyl-isoxazol-4-ylmethoxy)-nicotinamide], the Ki is 30.8 nM. For `Cc1onc(-c2ccccc2)c1COc1ccc(C(=O)NCc2cc(C(C)C)no2)cn1` [Example 80, N-(3-Isopropyl-isoxazol-5-ylmethyl)-6-(5-methyl-3-phenyl-isoxazol-4-ylmethoxy)-nicotinamide] the value was 44.4 nM; for `Cc1onc(-c2ccc(F)cc2)c1COc1ccc(C2(O)COC2)cn1` [Example 113, 3-{6-[3-(4-Fluoro-phenyl)-5-methyl-isoxazol-4-ylmethoxy]-pyridin-3-yl}-oxetan-3-ol], 20.9 nM; for `Cc1cc(CNC(=O)c2ccc(OCc3c(-c4ccccc4)noc3C)nc2)c(=O)[nH]n1` [Example 23, N-(6-Methyl-3-oxo-2,3-dihydro-pyridazin-4-ylmethyl)-6-(5-methyl-3-phenyl-isoxazol-4-ylmethoxy)-nicotinamide], 6.5 nM.

Regarding `Cc1onc(-c2ccccc2)c1COc1ccc(C(=O)N2CCCCC2)cn1` [Example 51, [6-(5-Methyl-3-phenyl-isoxazol-4-ylmethoxy)-pyridin-3-yl]-piperidin-1-yl-methanone], the Ki came to 50.8 nM.

As for `Cc1onc(-c2ccc(F)cc2)c1CNc1ccc(C(=O)NCC(F)(F)F)cn1` [Example 173, 6-{[3-(4-Fluoro-phenyl)-5-methyl-isoxazol-4-ylmethyl]-amino}-N-(2,2,2-trifluoro-ethyl)-nicotinamide], the Ki is 5.9 nM. Under `O=C(NC1CC1)c1ccc(OCc2conc2-c2ccc(F)cc2)nc1` [Example 329, N-Cyclopropyl-6-[3-(4-fluoro-phenyl)-isoxazol-4-ylmethoxy]-nicotinamide] stands 12.9 nM.

For `Cc1onc(-c2ccccc2)c1COc1ccc(C(=O)N2CCC[C@H]2CO)cn1` [Example 224], the Ki was 41.9 nM. As to `Cc1onc(-c2ccccc2)c1COc1ccc(C(=O)N[C@@H]2CCCC[C@H]2O)cn1` [Example 197, N-((1R,2R)-2-Hydroxy-cyclohexyl)-6-(5-methyl-3-phenyl-isoxazol-4-ylmethoxy)-nicotinamide], the Ki was 11 nM.

Consider `Cc1onc(-c2ccccc2)c1COc1ccc(C(=O)NCC2CCOC2)cn1` (centres unmarked) [Example 77, 6-(5-Methyl-3-phenyl-isoxazol-4-ylmethoxy)-N-(tetrahydro-furan-3-ylmethyl)-nicotinamide], for which the Ki was 4.6 nM. For `Cc1onc(-c2ccccc2)c1COc1ccc(C(=O)NCc2nc(C#N)cs2)cn1` [Example 21, N-(4-Cyano-thiazol-2-ylmethyl)-6-(5-methyl-3-phenyl-isoxazol-4-ylmethoxy)-nicotinamide] the value was 2.8 nM; for `Cc1onc(-c2ccccc2)c1COc1ccc(C(=O)N2CCCC2)cn1` [Example 228, [6-(5-Methyl-3-phenyl-isoxazol-4-ylmethoxy)-pyridin-3-yl]-pyrrolidin-1-yl-methanone], 37.1 nM. Turning to `Cc1onc(-c2ccccc2)c1COc1cc(C(=O)NCC(F)(F)F)ccn1` [Example 58, 2-(5-Methyl-3-phenyl-isoxazol-4-ylmethoxy)-N-(2,2,2-trifluoro-ethyl)-isonicotinamide], the Ki stood at 37.8 nM. Under `Cc1onc(-c2ccc(Cl)cc2)c1COc1ccc(C(=O)O)cn1` [Example 116, 6-[3-(4-Chloro-phenyl)-5-methyl-isoxazol-4-ylmethoxy]-nicotinic acid] stands 22.3 nM; under `Cc1onc(-c2ccccc2)c1CNc1ccc(C(=O)NC(C)C)cn1` [Example 164, N-Isopropyl-6-[(5-methyl-3-phenyl-isoxazol-4-ylmethyl)-amino]-nicotinamide], 5.9 nM. For `O=C(NCC(F)(F)F)c1ccc(OCc2c(-c3ccc(F)cc3)noc2C(F)(F)F)nc1` [Example 140, 6-[3-(4-Fluoro-phenyl)-5-trifluoromethyl-isoxazol-4-ylmethoxy]-N-(2,2,2-trifluoro-ethyl)-nicotinamide] the value was 57.8 nM; for `Cc1onc(-c2ccc(Cl)cc2)c1COc1ccc(C(=O)N[C@@H](C)C(F)(F)F)cn1` [Example 258, 6-[3-(4-Chloro-phenyl)-5-methyl-isoxazol-4-ylmethoxy]-N—((S)-2,2,2-trifluoro-1-methyl-ethyl)-nicotinamide], 1.3 nM; for `CNC(=O)c1ccc(OCc2c(-c3ccccn3)noc2C)nc1` [Example 279, Methyl-6-(5-methyl-3-pyridin-2-yl-isoxazol-4-ylmethoxy)-nicotinamide], 1.3 nM. Under `Cc1onc(-c2ccccc2)c1COc1ccc(C(=O)N2CCOCC2)cn1` [Example 53, [6-(5-Methyl-3-phenyl-isoxazol-4-ylmethoxy)-pyridin-3-yl]-morpholin-4-yl-methanone] stands 23.6 nM; under `Cc1onc(-c2ccccc2)c1COc1ccc(C(=O)NCC(F)(F)F)cn1` [Example 12, 6-(5-Methyl-3-phenyl-isoxazol-4-ylmethoxy)-N-(2,2,2-trifluoro-ethyl)-nicotinamide], 2.2 nM. On to `Cc1onc(-c2ccccc2)c1COc1ccc(C(=O)n2ccc(=O)[nH]2)cn1` [Example 238, 1-[6-(5-Methyl-3-phenyl-isoxazol-4-ylmethoxy)-pyridine-3-carbonyl]-1,2-dihydro-pyrazol-3-one], for which the Ki is 34.9 nM.

For the molecule `Cc1onc(-c2ccccc2)c1COc1ccc(C(=O)NC[C@H]2CC(=O)NO2)cn1` [Example 18], the Ki was 19.4 nM.
